The source made the active and inactive calls. The calls are words filed in the database; no cut-off is given here.
Tests used:
[1] = test system: Caco-2; experiment: Cytotoxicity against human Caco-2 cells at 100 uM after 72 hrs by MTT assay; type: functional, cell-based
[2] = test system: Nucleic Acid; experiment: Binding affinity to poly A-poly U RNA in sodium cacodylate buffer at pH 7 by fluorescence titration assay relative to control; type: nucleic-acid assay
[3] = test system: Nucleic Acid; experiment: Binding affinity to […] assessed as melting temperature at compound to DNA molar ratio of 0.2 at pH 5 by thermal denaturation assay; type: nucleic-acid assay
[4] = test system: Nucleic Acid; experiment: Binding affinity to […] assessed as change in melting temperature at compound to DNA molar ratio of 0.2 at pH 7 by thermal denaturation assay; type: nucleic-acid assay
[5] = test system: Nucleic Acid; experiment: Binding affinity to poly A-poly U RNA assessed as melting temperature at compound to DNA molar ratio of 0.3 at pH 7 by thermal denaturation assay; type: nucleic-acid assay
[6] = test system: Caco-2; experiment: Cytotoxicity against human Caco-2 cells at 0.1 to 100 uM after 72 hrs by MTT assay; type: functional, cell-based
[7] = test system: Nucleic Acid; experiment: Binding affinity to poly dA-poly dT RNA in sodium cacodylate buffer at pH 7 by UV-v titration assay; type: nucleic-acid assay
[8] = test system: Nucleic Acid; experiment: Binding affinity to […] assessed as melting temperature at compound to DNA molar ratio of 0.2 at pH 7 by thermal denaturation assay; type: nucleic-acid assay
[9] = test system: Calf thymus DNA; experiment: Binding affinity to calf thymus DNA assessed as melting temperature at compound to DNA molar ratio of 0.3 at pH 7 by thermal denaturation assay; type: nucleic-acid assay; details: Bos taurus
[10] = test system: Nucleic Acid; experiment: Binding affinity to AMP in citric acid buffer at pH 5 by fluorescence titration assay relative to control; type: nucleic-acid assay
[11] = test system: Nucleic Acid; experiment: Binding affinity to […] assessed as change in melting temperature at compound to DNA molar ratio of 0.3 at pH 7 by thermal denaturation assay; type: nucleic-acid assay
[12] = test system: MIA PaCa-2; experiment: Cytotoxicity against human MIAPaCa2 cells at 0.1 to 100 uM after 72 hrs by MTT assay; type: functional, cell-based
[13] = test system: Calf thymus DNA; experiment: Binding affinity to calf thymus DNA assessed as change in melting temperature at compound to DNA molar ratio of 0.3 at pH 5 by thermal denaturation assay; type: nucleic-acid assay; details: Bos taurus
[14] = test system: Nucleic Acid; experiment: Binding affinity to GMP in sodium cacodylate buffer at pH 7 by fluorescence titration assay relative to control; type: nucleic-acid assay
[15] = test system: Nucleic Acid; experiment: Binding affinity to poly G-poly C RNA in citric acid buffer at pH 5 by fluorescence titration assay relative to control; type: nucleic-acid assay
[16] = test system: Nucleic Acid; experiment: Binding affinity to poly A-poly U RNA assessed as change in melting temperature at compound to DNA molar ratio of 0.2 at pH 7 by thermal denaturation assay; type: nucleic-acid assay
[17] = test system: Calf thymus DNA; experiment: Binding affinity to calf thymus DNA in sodium cacodylate buffer at pH 7 by fluorescence titration assay relative to control; type: nucleic-acid assay; details: Bos taurus
[18] = Solubility of the compound in water; type: physicochemical; details: buffer
[19] = test system: Nucleic Acid; experiment: Binding affinity to […] assessed as change in melting temperature at compound to DNA molar ratio of 0.3 at pH 5 by thermal denaturation assay; type: nucleic-acid assay
[20] = test system: Nucleic Acid; experiment: Binding affinity to […] assessed as melting temperature at compound to DNA molar ratio of 0.3 at pH 5 by thermal denaturation assay; type: nucleic-acid assay
[21] = test system: Nucleic Acid; experiment: Binding affinity to poly A-poly U RNA assessed as change in melting temperature at compound to DNA molar ratio of 0.3 at pH 7 by thermal denaturation assay; type: nucleic-acid assay
[22] = test system: Nucleic Acid; experiment: Binding affinity to poly A-poly U RNA at compound to DNA molar ratio of 0.1 to 0.5 at pH 5 by circular dichroism; type: nucleic-acid assay
[23] = test system: Calf thymus DNA; experiment: Binding affinity to calf thymus DNA in sodium cacodylate buffer at pH 7 by fluorescence titration assay; type: nucleic-acid assay; details: Bos taurus
[24] = test system: Nucleic Acid; experiment: Binding affinity to poly A-poly U RNA assessed as change in melting temperature at compound to DNA molar ratio of 0.2 at pH 5 by thermal denaturation assay; type: nucleic-acid assay
[25] = test system: Nucleic Acid; experiment: Binding affinity to poly A-poly U RNA in citric acid buffer at pH 5 by fluorescence titration assay relative to control; type: nucleic-acid assay
[26] = test system: Nucleic Acid; experiment: Binding affinity to poly A-poly U RNA assessed as biphasic transitions of melting temperature at compound to DNA molar ratio of 0.2 at pH 5 by thermal denaturation assay; type: nucleic-acid assay
[27] = test system: Nucleic Acid; experiment: Binding affinity to AMP in sodium cacodylate buffer at pH 7 by fluorescence titration assay relative to control; type: nucleic-acid assay
[28] = test system: Nucleic Acid; experiment: Binding affinity to CMP in citric acid buffer at pH 5 by fluorescence titration assay relative to control; type: nucleic-acid assay
[29] = test system: HEp-2; experiment: Cytotoxicity against human Hep2 cells at 0.1 to 100 uM after 72 hrs by MTT assay; type: functional, cell-based
[30] = test system: Calf thymus DNA; experiment: Binding affinity to calf thymus DNA at compound to DNA molar ratio of 0.1 to 0.5 at pH 5 by circular dichroism; type: nucleic-acid assay; details: Bos taurus
[31] = test system: Nucleic Acid; experiment: Binding affinity to poly dA-poly dT RNA in citric acid buffer at pH 5 by fluorescence titration assay; type: nucleic-acid assay
[32] = test system: Calf thymus DNA; experiment: Binding affinity to calf thymus DNA in citric acid buffer at pH 5 by fluorescence titration assay relative to control; type: nucleic-acid assay; details: Bos taurus
[33] = test system: Nucleic Acid; experiment: Binding affinity to CMP in sodium cacodylate buffer at pH 7 by fluorescence titration assay relative to control; type: nucleic-acid assay
[34] = test system: Nucleic Acid; experiment: Binding affinity to poly dA-poly dT RNA in citric acid buffer at pH 5 by fluorescence titration assay relative to control; type: nucleic-acid assay
[35] = test system: Calf thymus DNA; experiment: Binding affinity to calf thymus DNA assessed as melting temperature at compound to DNA molar ratio of 0.3 at pH 5 by thermal denaturation assay; type: nucleic-acid assay; details: Bos taurus
[36] = test system: Nucleic Acid; experiment: Binding affinity to UMP in citric acid buffer at pH 5 by fluorescence titration assay relative to control; type: nucleic-acid assay
[37] = test system: Calf thymus DNA; experiment: Binding affinity to calf thymus DNA in citric acid buffer at pH 5 by fluorescence titration assay; type: nucleic-acid assay; details: Bos taurus
[38] = test system: Nucleic Acid; experiment: Binding affinity to poly G-poly C RNA in sodium cacodylate buffer at pH 7 by fluorescence titration assay relative to control; type: nucleic-acid assay
[39] = test system: Nucleic Acid; experiment: Binding affinity to UMP in sodium cacodylate buffer at pH 7 by fluorescence titration assay relative to control; type: nucleic-acid assay
[40] = test system: Nucleic Acid; experiment: Binding affinity to poly A-poly U RNA at compound to DNA molar ratio of 0.1 to 0.5 at pH 7 by circular dichroism; type: nucleic-acid assay
[41] = test system: Calf thymus DNA; experiment: Binding affinity to calf thymus DNA assessed as change in melting temperature at compound to DNA molar ratio of 0.3 at pH 7 by thermal denaturation assay; type: nucleic-acid assay; details: Bos taurus
[42] = test system: HeLa; experiment: Cytotoxicity against human HeLa cells at 0.1 to 100 uM after 72 hrs by MTT assay; type: functional, cell-based
[43] = test system: Nucleic Acid; experiment: Binding affinity to poly G-poly C RNA in citric acid buffer at pH 5 by fluorescence titration assay; type: nucleic-acid assay
[44] = test system: Nucleic Acid; experiment: Binding affinity to poly A-poly U RNA assessed as melting temperature at compound to DNA molar ratio of 0.2 at pH 5 by thermal denaturation assay; type: nucleic-acid assay
[45] = test system: Calf thymus DNA; experiment: Binding affinity to calf thymus DNA assessed as melting temperature at compound to DNA molar ratio of 0.2 at pH 7 by thermal denaturation assay; type: nucleic-acid assay; details: Bos taurus

RFU [2]: 4
Tm [3]: 57.5 °C
ΔTm [4]: 4.2 °C
Tm [5]: 53.6 °C
log Ks [7]: 5.3
Tm [8]: 69.1 °C
Tm [9]: 85.1 °C
RFU [10]: -38.5
ΔTm [11]: 5.5 °C
ΔTm [13]: 13.4 °C
RFU [14]: -16.7
RFU [15]: 0
ΔTm [16]: 2.3 °C
RFU [17]: 0.7
solubility [18]: 1060 µM
ΔTm [19]: 7.7 °C
Tm [20]: 57.7 °C
ΔTm [21]: 2.1 °C
Activity [22]: Active
log Ks [23]: 5.9
ΔTm [24]: 1.8 °C
RFU [25]: 8.1
Tm [26]: 31 °C
RFU [27]: -55
RFU [28]: -6.4
Activity [30]: Active
log Ks [31]: 6.6
RFU [32]: 0.3
RFU [33]: -9.4
RFU [34]: 2.3
Tm [35]: 74 °C
RFU [36]: -15.8
log Ks [37]: 5.6
RFU [38]: 0.5
RFU [39]: 1.02
Activity [40]: Active
ΔTm [41]: 5.8 °C
log Ks [43]: 5.2
Tm [44]: 82.9 °C
Tm [45]: 84.2 °C
SMILES: Cc1c2cc(NC(=O)NCCCCCCCCCNC(=O)Nc3ccc4c(c3)c(C)[n+](C)c3ccccc43)ccc2c2ccccc2[n+]1C.O=S(=O)([O-])O.O=S(=O)([O-])O
Activity [1]: inactive
Activity [6]: inactive
Activity [12]: inactive
Activity [29]: inactive
Activity [42]: inactive

Reference: ChEMBL document CHEMBL1208667, “Permanent positive charge strongly influences DNA/RNA binding and antiproliferative activity of urea-phenanthridinium conjugates” (Eur J Med Chem, 2010)
